Experiments:
Experiment in all cases: relative viability (nuclei count vs DMSO), 5 days (fraction); higher = more cells survive
ChaGo-K-1 = test system: ChaGo-K-1
Summary of the method: (§1)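 Dosing by pin tool came one day after lung cancer cell lines were seeded in 1536-well plates, using either one drug or a fixed anchor-drug dose plus five library-drug doses (not always all listed) in √10 steps. After 5 days, nuclei were counted on 4× images. Relative viability is treated-well nuclei count divided by vehicle-well nuclei count, and values are medians of duplicate plates.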

EMC-BAC-2 = test system: EMC-BAC-2
Summary of the method: as §1

EPLC-272H = test system: EPLC-272H
Summary of the method: as §1

H3255 = test system: H3255
Summary of the method: as §1

HCC-827 = test system: HCC-827
Summary of the method: as §1

LCLC-103H = test system: LCLC-103H
Summary of the method: as §1

LCLC-97TM1 = test system: LCLC-97TM1
Summary of the method: as §1

NCI-H1355 = test system: NCI-H1355
Summary of the method: as §1

NCI-H1395 = test system: NCI-H1395
Summary of the method: as §1

NCI-H1563 = test system: NCI-H1563
Summary of the method: as §1

NCI-H1651 = test system: NCI-H1651
Summary of the method: as §1

NCI-H1793 = test system: NCI-H1793
Summary of the method: as §1

NCI-H1944 = test system: NCI-H1944
Summary of the method: as §1

NCI-H2023 = test system: NCI-H2023
Summary of the method: as §1

NCI-H2085 = test system: NCI-H2085
Summary of the method: as §1

NCI-H2087 = test system: NCI-H2087
Summary of the method: as §1

NCI-H2405 = test system: NCI-H2405
Summary of the method: as §1

NCI-H322M = test system: NCI-H322M
Summary of the method: as §1

NCI-H520 = test system: NCI-H520
Summary of the method: as §1

NCI-H650 = test system: NCI-H650
Summary of the method: as §1

SK-MES-1 = test system: SK-MES-1
Summary of the method: as §1

UMC-11 = test system: UMC-11
Summary of the method: as §1

NC(=O)Nc1cc(-c2cccc(F)c2)sc1C(=O)N[C@H]1CCCNC1 [AZD7762] + Cc1nc(Nc2ncc(C(=O)Nc3c(C)cccc3Cl)s2)cc(N2CCN(CCO)CC2)n1 [Dasatinib] (partner 0.075 µM)
relative viability (ChaGo-K-1; first compound 0.01 µM): 0.572
relative viability (ChaGo-K-1; first compound 0.03162 µM): 0.575
relative viability (ChaGo-K-1; first compound 0.1 µM): 0.583
relative viability (ChaGo-K-1; first compound 0.3162 µM): 0.487
relative viability (ChaGo-K-1; first compound 1 µM): 0.583
relative viability (EMC-BAC-2; first compound 0.01 µM): 0.373
relative viability (EMC-BAC-2; first compound 0.03162 µM): 0.37
relative viability (EMC-BAC-2; first compound 0.1 µM): 0.359
relative viability (EMC-BAC-2; first compound 0.3162 µM): 0.346
relative viability (EMC-BAC-2; first compound 1 µM): 0.322
relative viability (EPLC-272H; first compound 0.01 µM): 0.338
relative viability (EPLC-272H; first compound 0.03162 µM): 0.384
relative viability (EPLC-272H; first compound 0.1 µM): 0.365
relative viability (EPLC-272H; first compound 0.3162 µM): 0.3
relative viability (EPLC-272H; first compound 1 µM): 0.0994
relative viability (H3255; first compound 0.01 µM): 0.347
relative viability (H3255; first compound 0.03162 µM): 0.307
relative viability (H3255; first compound 0.1 µM): 0.44
relative viability (H3255; first compound 0.3162 µM): 0.352
relative viability (H3255; first compound 1 µM): 0.319
relative viability (HCC-827; first compound 0.01 µM): 0.418
relative viability (HCC-827; first compound 0.03162 µM): 0.335
relative viability (HCC-827; first compound 0.1 µM): 0.302
relative viability (HCC-827; first compound 0.3162 µM): 0.31
relative viability (HCC-827; first compound 1 µM): 0.186
relative viability (LCLC-103H; first compound 0.01 µM): 0.555
relative viability (LCLC-103H; first compound 0.03162 µM): 0.463
relative viability (LCLC-103H; first compound 0.1 µM): 0.422
relative viability (LCLC-103H; first compound 0.3162 µM): 0.515
relative viability (LCLC-103H; first compound 1 µM): 0.284
relative viability (LCLC-97TM1; first compound 0.01 µM): 0.913
relative viability (LCLC-97TM1; first compound 0.03162 µM): 0.802
relative viability (LCLC-97TM1; first compound 0.1 µM): 0.778
relative viability (LCLC-97TM1; first compound 0.3162 µM): 0.572
relative viability (LCLC-97TM1; first compound 1 µM): 0.447
relative viability (NCI-H1355; first compound 0.01 µM): 0.668
relative viability (NCI-H1355; first compound 0.03162 µM): 0.849
relative viability (NCI-H1355; first compound 0.1 µM): 0.739
relative viability (NCI-H1355; first compound 0.3162 µM): 0.681
relative viability (NCI-H1355; first compound 1 µM): 0.506
relative viability (NCI-H1395; first compound 0.01 µM): 0.449
relative viability (NCI-H1395; first compound 0.03162 µM): 0.424
relative viability (NCI-H1395; first compound 0.1 µM): 0.427
relative viability (NCI-H1395; first compound 0.3162 µM): 0.371
relative viability (NCI-H1395; first compound 1 µM): 0.302
relative viability (NCI-H1563; first compound 0.01 µM): 0.451
relative viability (NCI-H1563; first compound 0.03162 µM): 0.492
relative viability (NCI-H1563; first compound 0.1 µM): 0.5
relative viability (NCI-H1563; first compound 0.3162 µM): 0.524
relative viability (NCI-H1563; first compound 1 µM): 0.419
relative viability (NCI-H1651; first compound 0.01 µM): 0.375
relative viability (NCI-H1651; first compound 0.03162 µM): 0.358
relative viability (NCI-H1651; first compound 0.1 µM): 0.386
relative viability (NCI-H1651; first compound 0.3162 µM): 0.22
relative viability (NCI-H1651; first compound 1 µM): 0.174
relative viability (NCI-H1793; first compound 0.01 µM): 0.408
relative viability (NCI-H1793; first compound 0.03162 µM): 0.388
relative viability (NCI-H1793; first compound 0.1 µM): 0.426
relative viability (NCI-H1793; first compound 0.3162 µM): 0.482
relative viability (NCI-H1793; first compound 1 µM): 0.276
relative viability (NCI-H1944; first compound 0.01 µM): 0.231
relative viability (NCI-H1944; first compound 0.03162 µM): 0.238
relative viability (NCI-H1944; first compound 0.1 µM): 0.252
relative viability (NCI-H1944; first compound 0.3162 µM): 0.256
relative viability (NCI-H1944; first compound 1 µM): 0.232
relative viability (NCI-H2023; first compound 0.01 µM): 0.513
relative viability (NCI-H2023; first compound 0.03162 µM): 0.425
relative viability (NCI-H2023; first compound 0.1 µM): 0.328
relative viability (NCI-H2023; first compound 0.3162 µM): 0.159
relative viability (NCI-H2023; first compound 1 µM): 0.0942
relative viability (NCI-H2085; first compound 0.01 µM): 0.247
relative viability (NCI-H2085; first compound 0.03162 µM): 0.254
relative viability (NCI-H2085; first compound 0.1 µM): 0.243
relative viability (NCI-H2085; first compound 0.3162 µM): 0.201
relative viability (NCI-H2085; first compound 1 µM): 0.216
relative viability (NCI-H2087; first compound 0.01 µM): 0.887
relative viability (NCI-H2087; first compound 0.03162 µM): 0.979
relative viability (NCI-H2087; first compound 0.1 µM): 0.919
relative viability (NCI-H2087; first compound 0.3162 µM): 0.773
relative viability (NCI-H2087; first compound 1 µM): 0.517
relative viability (NCI-H2405; first compound 0.01 µM): 0.234
relative viability (NCI-H2405; first compound 0.03162 µM): 0.216
relative viability (NCI-H2405; first compound 0.1 µM): 0.228
relative viability (NCI-H2405; first compound 0.3162 µM): 0.157
relative viability (NCI-H2405; first compound 1 µM): 0.177
relative viability (NCI-H322M; first compound 0.01 µM): 0.258
relative viability (NCI-H322M; first compound 0.03162 µM): 0.237
relative viability (NCI-H322M; first compound 0.1 µM): 0.286
relative viability (NCI-H322M; first compound 0.3162 µM): 0.279
relative viability (NCI-H322M; first compound 1 µM): 0.256
relative viability (NCI-H520; first compound 0.01 µM): 0.212
relative viability (NCI-H520; first compound 0.03162 µM): 0.18
relative viability (NCI-H520; first compound 0.1 µM): 0.192
relative viability (NCI-H520; first compound 0.3162 µM): 0.16
relative viability (NCI-H520; first compound 1 µM): 0.189
relative viability (NCI-H650; first compound 0.01 µM): 0.455
relative viability (NCI-H650; first compound 0.03162 µM): 0.539
relative viability (NCI-H650; first compound 0.1 µM): 0.475
relative viability (NCI-H650; first compound 0.3162 µM): 0.505
relative viability (NCI-H650; first compound 1 µM): 0.412
relative viability (SK-MES-1; first compound 0.01 µM): 0.413
relative viability (SK-MES-1; first compound 0.03162 µM): 0.468
relative viability (SK-MES-1; first compound 0.1 µM): 0.302
relative viability (SK-MES-1; first compound 0.3162 µM): 0.131
relative viability (SK-MES-1; first compound 1 µM): 0.117
relative viability (UMC-11; first compound 0.01 µM): 0.516
relative viability (UMC-11; first compound 0.03162 µM): 0.447
relative viability (UMC-11; first compound 0.1 µM): 0.407
relative viability (UMC-11; first compound 0.3162 µM): 0.392
relative viability (UMC-11; first compound 1 µM): 0.215
